Test results: patent US8158591B2, “Anticancer treatment with a combination of taxanes and 13-deoxyanthracyclines” (Gem Pharmaceuticals, LLC, priority 2006, dated 2012)
“Also recorded” adds a separate entry of the source. Marks after values point to notes of the source that are not given here.

Experiments:
[1] = optimum antitumor dose relative to doxorubicin; conditions: in vivo
[2] = test system: H9c2 cells; test: growth inhibition of non-cancerous H9c2 cells; assay type: cell-based; conditions: Rattus norvegicus
[3] = cardiotoxicity evaluation in chronically treated rabbits (LVFS, hematocrit, isolated atria dF/dt, histopathology); conditions: rabbit; for cardiotoxicity with chronic dosing / HCT % (hematocrit), Post / Histopathology Score / dF/dt (myocardial contractility of isolated atria) / FS % (left ventricular fractional shortening), Post: in vivo; for HCT % (hematocrit), Post / FS % (left ventricular fractional shortening), Post: iv
Procedure: Twenty-four age matched New Zealand white rabbits weighing 3.0 kg are randomized into four groups (N=6 rabbits/group). […] Doses of drug or vehicle are administered iv into an ear vein two times per week. Serum and blood samples are obtained weekly and M-mode echocardiology performed weekly or every other week to obtain left ventricular fractional shortening (LVFS) to assess cardiac function. Food consumption is measured daily and body weight is measured weekly. Control rabbits are fed the same amount of food as doxorubicin treated rabbits (pair fed). At sacrifice, apex and left ventricular free wall samples are obtained and preserved in 10% buffered formalin for histologic scoring and analysis via light microscopy. Left ventricular tissue samples are also obtained to assess cardiac levels of anthracyclines and metabolites.
At sacrifice, the heart is removed and two types of tissue are sampled from the heart, ventricular apex and left ventricular free wall, and stored in 10% formalin. Each tissue is prepared for three different stains: H&E, toluidine blue, and trichcrome. The tissues are scored (blind) using a modification of the Billingham scale. The scoring scale is from 0-4 with 0=<10% of cells or tissue lesioned, 1 to 10%-19% of cells or tissue lesioned, 2 to 20%-29% of cells or tissue lesioned, 3 to 30%-39% of cells or tissue lesioned, 4 to 40% or more cells or tissue lesioned. The ventricular apex and the left ventricular free wall are analyzed separately. Each receives a score for mononuclear infiltration, fibrosis, and cytoplasmic vacuolization. Thus, each rabbit has six scores, three for the apex (mononuclear infiltration, fibrosis, and cytoplasmic vacuolization) and three for the left ventricular free wall (mononuclear infiltration, fibrosis, and cytoplasmic vacuolization). Each score is obtained by looking at all three stains.
Also at sacrifice, left atria are isolated, divided in half and both halves studied to assess cardiac function in vitro in a tissue bath where afterload and preload remain constant throughout the study. Cardiac contractility is measured as the maximum rate of force development (dF/dt) in response to contractions induced by electrical stimulation via punctuate electrodes located at the base of each muscle preparation.

[4] = test system: P388 murine leukemia; test: in vivo anticancer activity in murine leukemia model, CD2F1 mice injected with P388 cells; conditions: for Median survival time: 1 million P388 cells ip; for T/C % (median survival time of treated mice divided by that of control mice x 100): P388 ip
Procedure: Groups of CD2F1 mice are injected intraperitoneally (ip) with 1 million P388 cells. There were 10 mice per group. In the doxorubicin group 0.8 mg/kg is administered ip consecutively for 9 days on days 1-9 of the study. […] A control group is injected with vehicle. Median survival times are calculated for each group. Activity of a compound is expressed as the amount of prolonged survival (median survival of the treated group divided by the median survival time of the control group, multiplied by 100, T/C %).

[5] = test system: MCF-7 human mammary tumor cells; test: inhibition of growth of MCF-7 cells (tritiated thymidine incorporation); conditions: for IC30 for inhibition of growth: MCF-7, 24 hours drug exposure; for fold increase in the cancer growth inhibition potency of paclitaxel: MCF-7, anthracycline at IC30 concentration
Procedure: (§1) The inhibitory effects of doxorubicin (I), 13-deoxydoxorubicin (II), 5-imino-13-deoxydoxorubicin (III), daunorubicin (IV), 13-deoxydaunorubicin (V), and 5-imino-13-deoxydaunorubicin (VI) on the growth of MCF-7 human mammary tumor cells and P388 murine leukemia cells are measured in vitro. The MCF-7 and P388 cell lines used for these studies are cultured and maintained utilizing the protocol from the American Type Culture Collection (ATCC) protocols. MCF-7 media was EMEM (Eagle Minimum
(§2) Essential Medium; ATCC) and P388 media is Dulbecco's modified Eagle's medium (DMEM, ATCC). Working media for MCF-7 and P388 is made by the addition of 50 ml FBS (fetal bovine serum, MCF-7) or 50 ml horse serum (ATCC, P388) to 450 ml EMEM media (MCF-7) or DMEM (P388). 4.5 g/L glucose (Sigma) is also added to the DMEM (P388). Five ml Penicillin/Streptomycin (P/S, Gibco) is added to the MCF-7 and P388 working media. Cells are grown at 37° C. in 5% CO2 for 1 week, and 25 ml fresh media is added. Cells are passaged when they reach a density of 1-2×10^6 cells/ml by transferring to a new flask containing fresh media.
(§3) Using sterile technique, MCF-7 cells are harvested from the T-75 flasks by removing and discarding the culture medium. 5 ml of 0.25% Trypsin-EDTA solution (Sigma) is added to each flask to de-attach the cells. The flask is placed in the incubator for 5-10 minutes to facilitate dispersal. 10 ml of complete growth medium is added, directly decanted into 50 ml tubes then centrifuged for 10 minutes at 200×g. P388 cells are harvested by directly decanting media into 50 ml tubes and centrifuging for 10 minutes at 200×g. The pellet (MCF-7 and P388) is resuspended in 5 ml and the cells dispersed by expelling gently through an 18 g needle fitted to a syringe. The cells are counted using a hemocytometer and diluted with media to 150,000 cells/ml. The diluted cells are pipetted into 96-well plates at a concentration of 15,000 cells/well in 100 μl. The plates are covered and incubated at 37° C. for 48 hours.
(§4) Dilutions of the anthracyclines and paclitaxel are made up in cell-specific serum-free media. The drugs at appropriate concentrations are added to all wells in 50 μl aliquots and the cells are grown in the presence of the drugs (anthracyclines/paclitaxel) for 24 hours. Tritiated thymidine (ICN) is diluted in serum-free cell-specific media to a concentration of 1 μCi/50 μl. All wells used for analysis are spiked with 50 μl aliquots of media containing tritiated thymidine. Following a 4-hour exposure to isotope, tritiated thymidine incorporation into DNA is measured by hypotonic lysis of cells with deionized water and collection of cellular contents onto Whatman GF-C filters using a Brandel cell harvester. Prior to harvesting MCF-7 cells, the media is aspirated, 150 μL of 0.25% Trypsin-EDTA is added to each well to de-attach the cells. Filters are allowed to dry, placed into 7 ml scintillation vials containing 5 ml scintillation cocktail and counted in a scintillation counter. In preliminary experiments, the concentrations of anthracyclines that would produce a 30% inhibition of growth (inhibitory concentration 30, IC30) on MCF-7 cells and 10% inhibition of growth (IC10) on P388 cells are determined.

[6] = test system: P388 murine leukemia cells; test: inhibition of growth of P388 cells in vitro (tritiated thymidine incorporation); conditions: for IC10 for inhibition of growth: P388, 24 hours drug exposure
Procedure: as §1, §2, §3, §4

[7] = test system: breast cancer; conditions: breast cancer patients; cited from earlier work
[8] = H9c2, H9c2, anthracycline alone
[9] = H9c2, H9c2, in the presence of weak growth inhibitory concentrations of paclitaxel (IC10)

SMILES | cardiotoxicity with chronic dosing [3] | HCT % (hematocrit), Post [3] | Median survival time ([4]; drug ip on days 1-9, n = 10) [days] | T/C % (median survival time of treated mice divided by that of control mice x 100) ([4]; drug ip on days 1-9, n = 10) | IC30 for inhibition of growth [5] [nM] | fold increase in the cancer growth inhibition potency of paclitaxel [5] [fold] | IC10 for inhibition of growth [6] [nM] | other results
COc1cccc2c1C(=O)c1c(O)c3c(c(O)c1C2=O)C[C@@](O)(CCO)C[C@@H]3OC1CC(N)C(O)C(C)O1 (stereo partly drawn) [Compound II, 13-deoxydoxorubicin] | devoid of cardiotoxicity | 23.8* % | 27 | 142* % | 450 | 20 | 1100 | optimum antitumor dose relative to the dose of doxorubicin [1]: approximately twice; IC50 [2, 8]: 700 nM; IC50 [2, 9]: 400 nM; Median survival time ([4]; drug ip on days 1-9, n = 10, listed as 13-deoxydoxorubicin): significant increase in median survival time
COc1cccc2c1C(=N)c1c(O)c3c(c(O)c1C2=O)C[C@@](O)(CCO)C[C@@H]3OC1CC(N)C(O)C(C)O1 (stereo partly drawn) [Compound III] | devoid of cardiotoxicity | 33.3* % | 27 | 142* % | 750 | 220 | 3500 | optimum antitumor dose relative to the dose of doxorubicin [1]: up to 7 times; IC50 [2, 8]: 1500 nM; IC50 [2, 9]: 210 nM
CC[C@]1(O)Cc2c(O)c3c(c(O)c2[C@@H](OC2CC(N)C(O)C(C)O2)C1)C(=O)c1c(OC)cccc1C3=O (stereo partly drawn) [Compound V, 13-deoxydaunorubicin] | – | – | – | – | 645 | – | 700 | –
CC[C@]1(O)Cc2c(O)c3c(c(O)c2[C@@H](OC2CC(N)C(O)C(C)O2)C1)C(=N)c1c(OC)cccc1C3=O (stereo partly drawn) [Compound VI] | – | – | – | – | 875 | – | 1700 | –
COc1cccc2c1C(=O)c1c(O)c3c(c(O)c1C2=O)C[C@@](O)(C(C)=O)C[C@@H]3OC1CC(N)C(O)C(C)O1 (stereo partly drawn) [Daunorubicin (IV), daunorubicin] | – | – | – | – | 750 | – | 300 | –
COc1cccc2c1C(=O)c1c(O)c3c(c(O)c1C2=O)C[C@@](O)(C(=O)CO)C[C@@H]3OC1CC(N)C(O)C(C)O1 (stereo partly drawn) [Doxorubicin (I), doxorubicin] | profound cardiotoxicity | 27.5* % | 28 | 147* % | 100 | 2.8 | 250 | anticancer response rate [7]: 35-50%; IC50 ([2]; H9c2, anthracycline alone): 210 nM; Histopathology Score ([3]; New Zealand white): 1.81*,^+; dF/dt (myocardial contractility of isolated atria) ([3]; New Zealand white): 15.1*,^+ gms/sec; FS % (left ventricular fractional shortening), Post ([3]; New Zealand white): 27.4*,^+ %; cumulative cardiotoxic dose ([3]; 1.25 mg/kg twice/week for 7 weeks): 17.5 mg/kg; Histopathology Score [3]: significantly increased; dF/dt (myocardial contractility of isolated atria) [3]: significantly reduced; FS % (left ventricular fractional shortening), Post [3]: statistically significant decrease; T/C % (median survival time of treated mice divided by that of control mice x 100) ([4]; drug ip on days 1-9, n = 10, listed as Doxorubicin): 147%
CC(=O)O[C@H]1C(=O)[C@@]2(C)[C@H]([C@H](OC(=O)c3ccccc3)[C@]3(O)C[C@H](OC(=O)[C@H](O)[C@@H](NC(=O)c4ccccc4)c4ccccc4)C(C)=C1C3(C)C)[C@]1(OC(C)=O)CO[C@@H]1C[C@@H]2O [Paclitaxel, paclitaxel] | – | – | – | – | – | – | – | anticancer response rate [7]: 32-62%; growth inhibitory effect ([5]; MCF7, paclitaxel alone, 1 to 50 nM): no growth inhibitory effect; IC50 of paclitaxel for inhibition of growth ([6]; P388, paclitaxel alone or in the presence of the anthracycline at its IC10 concentration, mean ± standard error, n = 3): no inhibitory activity; also recorded: Inactive; growth inhibitory effect ([6]; P388, paclitaxel alone, concentrations up to 2000 nM): no growth inhibitory effect
